Our source for the IC50 values is patent US9834554B2, “BTK inhibitors” (MERCK SHARP & DOHME CORP., priority 2013, dated 2017).

The structures appear in SMILES notation.

BTK enzyme (recombinant full-length BTK, hBTK), sequence (Q06187 whole entry): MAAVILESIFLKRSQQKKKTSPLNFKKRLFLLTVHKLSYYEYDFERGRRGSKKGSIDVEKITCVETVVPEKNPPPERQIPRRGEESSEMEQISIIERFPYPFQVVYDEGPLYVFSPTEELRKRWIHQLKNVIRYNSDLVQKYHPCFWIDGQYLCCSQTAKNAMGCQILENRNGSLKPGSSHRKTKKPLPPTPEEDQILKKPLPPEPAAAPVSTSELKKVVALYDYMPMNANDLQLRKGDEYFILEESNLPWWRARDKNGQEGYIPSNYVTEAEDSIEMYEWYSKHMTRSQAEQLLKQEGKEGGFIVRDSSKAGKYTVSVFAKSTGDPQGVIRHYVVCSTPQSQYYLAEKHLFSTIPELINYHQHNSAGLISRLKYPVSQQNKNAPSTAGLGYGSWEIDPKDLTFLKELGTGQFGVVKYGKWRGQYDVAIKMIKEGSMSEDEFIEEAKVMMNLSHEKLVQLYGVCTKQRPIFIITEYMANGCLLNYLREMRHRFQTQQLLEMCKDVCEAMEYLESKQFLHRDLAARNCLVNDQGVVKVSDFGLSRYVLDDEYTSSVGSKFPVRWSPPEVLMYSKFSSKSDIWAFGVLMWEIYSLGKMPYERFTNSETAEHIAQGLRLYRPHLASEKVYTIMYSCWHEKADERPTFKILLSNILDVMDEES

One experiment concerns the target BTK enzyme (recombinant full-length BTK, hBTK) (Homo sapiens (Human), UniProt Q06187). In words: Btk enzyme activity assay, LANCE TR-FRET.
Settings: not given
Regarding `N#CC1(C(=O)N2CCC[C@@H](c3nn(-c4ccc(C(=O)Nc5cc(C(F)(F)F)ccn5)cc4)c4c(N)nccc34)C2)CC1` [Example 27, 4-(7-amino-3-{(3R)-1-[(1-cyanocyclopropyl)carbonyl]piperidin-3-yl}-1H-pyrazolo[3,4-c]pyridin-1-yl)-N-[4-(trifluoromethyl)pyridin-2-yl]benzamide], the IC50 was 2.2 nM.

As for `Nc1nccc2c([C@@H]3CC[C@H]4CCC(=O)N4C3)nn(-c3ccc(C(=O)Nc4cc(C(F)(F)F)ccn4)cc3)c12` [Example 38, 4-{7-amino-3-[(6R,8aS)-3-oxooctahydroindolizin-6-yl]-1H-pyrazolo[3,4-c]pyridin-1-yl}-N-[4-(trifluoromethyl)pyridin-2-yl]benzamide], the IC50 was 0.17 nM.

Still in this experiment, the particulars now being: read-out: BTK binding IC50; 50 pM hBTK, 2 μM biotin-A5-peptide, 25 μM ATP; 60 minute compound & enzyme incubation.
Take `COc1ccnc(NC(=O)c2ccc(-n3nc([C@@H]4CCCN(C(=O)C5(C)COC5)C4)c4ccnc(N)c43)cc2)c1` [Example 28, (R)-4-(7-amino-3-(1-(3-methyloxetane-3-carbonyl)piperidin-3-yl)-1H-pyrazolo[3,4-c]pyridin-1-yl)-N-(4-methoxypyridin-2-yl)benzamide 2,2,2-trifluoroacetate]: the IC50 was found to be 0.49 nM.

Regarding `COc1ccnc(NC(=O)c2ccc(-n3nc([C@@H]4CCCN(C(=O)C(C)(CO)CO)C4)c4ccnc(N)c43)cc2)c1` [Example 29, (R)-4-(7-amino-3-(1-(3-hydroxy-2-(hydroxymethyl)-2-methylpropanoyl)piperidin-3-yl)-1H-pyrazolo[3,4-c]pyridin-1-yl)-N-(4-methoxypyridin-2-yl)benzamide 2,2,2-trifluoroacetate], the concentration for half-maximal inhibition (IC50) came out at 1.6 nM.

As for `C[C@H]1CC[C@@H](c2nn(-c3ccc(C(=O)Nc4cc(C5CC5)ccn4)cc3)c3c(N)nccc23)CN1C(=O)C1(C)COC1` [Example 30, 4-(7-amino-3-((3R,6S)-6-methyl-1-(3-methyloxetane-3-carbonyl)piperidin-3-yl)-1H-pyrazolo[3,4-c]pyridin-1-yl)-N-(4-cyclopropylpyridin-2-yl)benzamide], the IC50 amounted to 0.98 nM.

As for `C[C@H]1CC[C@@H](c2nn(-c3ccc(C(=O)Nc4cc(C5CC5)ccn4)cc3)c3c(N)nccc23)CN1C(=O)C1CC1` [Example 31, 4-{7-amino-3-[(3R,6S)-1-(cyclopropylcarbonyl)-6-methylpiperidin-3-yl]-1H-pyrazolo[3,4-c]pyridin-1-yl}-N-(4-cyclopropylpyridin-2-yl)benzamide], the IC50 was determined as 1.3 nM.

As to `C[C@H](O)C(=O)N1C[C@H](c2nn(-c3ccc(C(=O)Nc4cc(C5CC5)ccn4)cc3)c3c(N)nccc23)CC[C@@H]1C` [Example 32, 4-(7-amino-3-{(3R,6S)-1-[(2S)-2-hydroxypropanoyl]-6-methylpiperidin-3-yl}-1H-pyrazolo[3,4-c]pyridin-1-yl)-N-(4-cyclopropylpyridin-2-yl)benzamide], the IC50 amounted to 1.6 nM.

`CO[C@@H](C)C(=O)N1C[C@H](c2nn(-c3ccc(C(=O)Nc4cc(C5CC5)ccn4)cc3)c3c(N)nccc23)CC[C@@H]1C` [Example 33, 4-(7-amino-3-{(3R,6S)-1-[(2S)-2-methoxypropanoyl]-6-methylpiperidin-3-yl}-1H-pyrazolo[3,4-c]pyridin-1-yl)-N-(4-cyclopropylpyridin-2-yl)benzamide]: the IC50 worked out at 2 nM.

As to `C[C@H]1CC[C@@H](c2nn(-c3ccc(C(=O)Nc4cccc(OC5CC5)c4)cc3)c3c(N)nccc23)CN1C(=O)C1CC1` [Example 34, 4-(7-amino-3-((3R,6S)-1-(cyclopropanecarbonyl)-6-methylpiperidin-3-yl)-1H-pyrazolo[3,4-c]pyridin-1-yl)-N-(3-cyclopropoxyphenyl)benzamide], the IC50 amounted to 0.87 nM.

Turning to `C[C@H]1CC[C@@H](c2nn(-c3ccc(C(=O)Nc4cccc(OC5CC5)c4)cc3)c3c(N)nccc23)CN1C(=O)C1(C)COC1` [Example 35, 4-(7-amino-3-((3R,6S)-6-methyl-1-(3-methyloxetane-3-carbonyl)piperidin-3-yl)-1H-pyrazolo[3,4-c]pyridin-1-yl)-N-(3-cyclopropoxyphenyl)benzamide], the IC50 turned out to be 0.96 nM.

On to `C[C@@H](O)C(=O)N1C[C@H](c2nn(-c3ccc(C(=O)Nc4cccc(OC5CC5)c4)cc3)c3c(N)nccc23)CC[C@@H]1C` [Example 36, 4-(7-amino-3-((3R,6S)-1-((R)-2-hydroxypropanoyl)-6-methylpiperidin-3-yl)-1H-pyrazolo[3,4-c]pyridin-1-yl)-N-(3-cyclopropoxyphenyl)benzamide], for which the half-inhibitory concentration (IC50) worked out at 30.4 nM.

Regarding `COc1cc(C(=O)Nc2cccc(C(F)(F)F)c2)ccc1-n1nc([C@@H]2CC[C@H](C)N(C(=O)C3CC3)C2)c2ccnc(N)c21` [Example 37, 4-(7-amino-3-((3R,6S)-1-(cyclopropanecarbonyl)-6-methylpiperidin-3-yl)-1H-pyrazolo[3,4-c]pyridin-1-yl)-3-methoxy-N-(3-(trifluoromethyl)phenyl)benzamide], the IC50 was 2.1 nM.

Regarding `Nc1nccc2c([C@@H]3CC[C@H]4CCC(=O)N4C3)nn(-c3ccc(C(=O)Nc4cc(C(F)(F)F)ccn4)cc3OC3CC3)c12` [Example 39, 4-{7-amino-3-[(6R,8aS)-3-oxooctahydroindolizin-6-yl]-1H-pyrazolo[3,4-c]pyridin-1-yl}-3-(cyclopropyloxy)-N-[4-(trifluoromethyl)pyridin-2-yl] benzamide], the IC50 turned out to be 2.8 nM.

On to `COc1cc(C(=O)Nc2cc(C(F)(F)F)ccn2)ccc1-n1nc([C@@H]2CC[C@H]3CCC(=O)N3C2)c2ccnc(N)c21` [Example 40, 4-{7-amino-3-[(6R,8aS)-3-oxooctahydroindolizin-6-yl]-1H-pyrazolo[3,4-c]pyridin-1-yl}-3-methoxy-N-[4-(trifluoromethyl)pyridin-2-yl] benzamide], for which the IC50 was 1.1 nM.

On to `CCOc1cc(C(=O)Nc2cc(C(F)(F)F)ccn2)ccc1-n1nc([C@@H]2CC[C@H]3CCC(=O)N3C2)c2ccnc(N)c21` [Example 41, 4-{7-amino-3-[(6R,8aS)-3-oxooctahydroindolizin-6-yl]-1H-pyrazolo[3,4-c]pyridin-1-yl}-3-ethoxy-N-[4-(trifluoromethyl)pyridin-2-yl] benzamide], for which the IC50 came to 0.44 nM.
